Test results published in US20100063065A1 (Inpharmatica Limited, priority 2005, published 2010).
pEC50: −log10 of the molar value.

Target: T1, PPARδ (Homo sapiens, UniProt Q03181)
T1 construct: fused to amino acids 147-441 of PPARδ downstream of CMV promoter; expressed in transfected cells; host or cells: HEK293 cells, transiently transfected with pFACMV-PPARδ using Fugene
T1 sequence (Q03181 147-441): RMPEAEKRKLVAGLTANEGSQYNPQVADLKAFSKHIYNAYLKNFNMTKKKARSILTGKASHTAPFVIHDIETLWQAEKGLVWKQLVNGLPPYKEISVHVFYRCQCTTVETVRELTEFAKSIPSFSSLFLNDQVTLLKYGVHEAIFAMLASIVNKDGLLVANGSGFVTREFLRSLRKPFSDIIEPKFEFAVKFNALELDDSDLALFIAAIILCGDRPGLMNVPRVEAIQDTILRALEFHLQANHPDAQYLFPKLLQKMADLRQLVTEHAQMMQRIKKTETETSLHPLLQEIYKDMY
Test: Transactivation assay (PPARδ GAL4 assay) in transiently transfected HEK293 cells
Assay type: cell-based
Conditions: luciferase reporter, Table 1
Procedure, shortened: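 HEK293 cells transiently co-transfected with GAL4 DBD (aa 1-147)–PPARδ (aa 147-441) fusion and 5×GAL4-luciferase reporter, then exposed 24 h to compound (final 0-30 μM) in OptiMEM at 37° C. Luminescence read; activity as percent of GW501516 control, EC50 from sigmoidal dose-response fit.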

pEC50 | Structure (SMILES)
4.52 to 6.00 | CCc1cc(C(=O)c2ccc(OC)cc2)c(NC(=O)CSc2ccc(OCC(=O)O)cc2)s1 [Example 89, (4-{[5-Ethyl-3-(4-methoxy-benzoyl)-thiophen-2-ylcarbamoyl]-methylsulfanyl}-phenoxy)-acetic acid]
4.52 to 6.00 | CCc1cc(C(=O)c2ccc(OC)cc2)c(NC(=O)CSc2cccc(C(=O)O)c2)s1 [Example 90, 3-{[5-Ethyl-3-(4-methoxy-benzoyl)-thiophen-2-ylcarbamoyl]-methylsulfanyl}-benzoic acid]
4.52 to 6.00 | CCc1cc(C(=O)c2ccc(OC)cc2)c(NC(=O)CSc2ccc(OCC(=O)O)c(C)c2)s1 [Example 91, (4-{[5-Ethyl-3-(4-methoxy-benzoyl)-thiophen-2-ylcarbamoyl]-methylsulfanyl}-2-methyl-phenoxy)-acetic acid]
6.00 to 7.00 | CCc1cc(C(=O)c2ccc(OC)cc2)c(NC(=O)CSc2ccc(OC(C)(C)C(=O)O)cc2)s1 [Example 92, 2-(4-{[5-Ethyl-3-(4-methoxy-benzoyl)-thiophen-2-ylcarbamoyl]-methylsulfanyl}-phenoxy)-2-methyl-propionic acid]
6.00 to 7.00 | CCc1cc(C(=O)c2ccc(OC(F)(F)F)cc2)c(NC(=O)CSc2ccc(OCC(=O)O)cc2)s1 [Example 93]
6.00 to 7.00 | CCc1cc(C(=O)c2ccc(OC(F)(F)F)cc2)c(NC(=O)CSc2ccc(OCC(=O)O)c(C)c2)s1 [Example 94, (4-{[5-Ethyl-3-(4-trifluoromethoxy-benzoyl)-thiophen-2-ylcarbamoyl]-methylsulfanyl}-2-methyl-phenoxy)-acetic acid]
6.00 to 7.00 | CCc1cc(C(=O)c2ccc(OC(F)(F)F)cc2)c(NC(=O)CSc2ccc(OC(C)(C)C(=O)O)cc2)s1 [Example 95, 2-(4-{[5-Ethyl-3-(4-trifluoromethoxy-benzoyl)-thiophen-2-ylcarbamoyl]-methylsulfanyl}-phenoxy)-2-methyl-propionic acid]
6.00 to 7.00 | CCc1cc(C(=O)c2ccc(OC(F)(F)F)cc2)c(NC(=O)CSc2ccc(CCC(=O)O)cc2)s1 [Example 96, 3-(4-{[5-Ethyl-3-(4-trifluoromethoxy-benzoyl)-thiophen-2-ylcarbamoyl]-methylsulfanyl}-phenyl)-propionic acid]
6.00 to 7.00 | CCc1cc(C(=O)c2ccc(Cl)cc2)c(NC(=O)c2ccc(OCC(=O)O)cc2)s1 [Example 97, {4-[3-(4-Chloro-benzoyl)-5-ethyl-thiophen-2-ylcarbamoyl]-phenoxy}-acetic acid]
6.00 to 7.00 | CCc1cc(C(=O)c2ccc(OC(F)(F)F)cc2)c(NC(=O)c2cccc(SCC(=O)O)c2)s1 [Example 98, {3-[5-Ethyl-3-(4-trifluoromethoxy-benzoyl)-thiophen-2-ylcarbamoyl]-phenylsulfanyl}-acetic acid]
> 7.00 | CCc1cc(C(=O)c2ccc(OC(F)(F)F)cc2)c(NC(=O)c2ccc(OCC(=O)O)cc2)s1 [Example 99, {4-[5-Ethyl-3-(4-trifluoromethoxy-benzoyl)-thiophen-2-ylcarbamoyl]-phenoxy}-acetic acid]
6.00 to 7.00 | CCc1cc(C(=O)c2ccc(OC(F)(F)F)cc2)c(NC(=O)c2cccc(OCC(=O)O)c2)s1 [Example 100, {3-[5-Ethyl-3-(4-trifluoromethoxy-benzoyl)-thiophen-2-ylcarbamoyl]-phenoxy}-acetic acid]
> 7.00 | CCc1cc(C(=O)c2ccc(OC(F)(F)F)cc2)c(NC(=O)c2ccc(OCC(=O)O)c(C)c2)s1 [Example 101, {4-[5-Ethyl-3-(4-trifluoromethoxy-benzoyl)-thiophen-2-ylcarbamoyl]-2-methyl-phenoxy}-acetic acid]
6.00 to 7.00 | CCc1cc(C(=O)c2ccc(OC(F)(F)F)cc2)c(NC(=O)c2ccc(OC(C)(C)C(=O)O)cc2)s1 [Example 102, 2-{4-[5-Ethyl-3-(4-trifluoromethoxy-benzoyl)-thiophen-2-ylcarbamoyl]-phenoxy}-2-methyl-propionic acid]
6.00 to 7.00 | CCc1cc(C(=O)c2ccc(OC(F)(F)F)cc2)c(NC(=O)c2ccc(SCC(=O)O)cc2)s1 [Example 103, {4-[5-Ethyl-3-(4-trifluoromethoxy-benzoyl)-thiophen-2-ylcarbamoyl]-phenylsulfanyl}-acetic acid]

Same assay, conditions: luciferase reporter, Table 2

pEC50 | Structure (SMILES)
6.00 to 7.00 | CCc1cc(C(=O)c2ccc(OC(F)(F)F)cc2)c(NC(=O)CCCC(=O)O)s1 [Example 104, 4-[5-Ethyl-3-(4-trifluoromethoxy-benzoyl)-thiophen-2-ylcarbamoyl]-butyric acid]
6.00 to 7.00 | CCc1cc(C(=O)c2ccc(OC(F)(F)F)cc2)c(NC(=O)CCCSCC(=O)O)s1 [Example 105, {3-[5-Ethyl-3-(4-trifluoromethoxy-benzoyl)-thiophen-2-ylcarbamoyl]-propylsulfanyl}-acetic acid]
> 7.00 | CCc1cc(C(=O)c2ccc(OC(F)(F)F)cc2)c(NC(=O)C(C)SCC(=O)O)s1 (centres unmarked) [Example 106, {1-[5-Ethyl-3-(4-trifluoromethoxy-benzoyl)-thiophen-2-ylcarbamoyl]-ethylsulfanyl}-acetic acid]
6.00 to 7.00 | CCc1cc(C(=O)c2ccc(OC(F)(F)F)cc2)c(NC(=O)C(C)(C)SCC(=O)O)s1 [Example 107, {1-[5-Ethyl-3-(4-trifluoromethoxy-benzoyl)-thiophen-2-ylcarbamoyl]-1-methyl-ethylsulfanyl}-acetic acid]
> 7.00 | CCc1cc(C(=O)c2ccc(OC(F)(F)F)cc2)c(NC(=O)C(C)(C)SC(C)C(=O)O)s1 (centres unmarked) [Example 108, 2-{1-[5-Ethyl-3-(4-trifluoromethoxy-benzoyl)-thiophen-2-ylcarbamoyl]-1-methyl-ethylsulfanyl}-propionic acid]
> 7.00 | CCc1cc(C(=O)c2ccc(OC(F)(F)F)cc2)c(NC(=O)C(CC)SCC(=O)O)s1 (centres unmarked) [Example 109, {1-[5-Ethyl-3-(4-trifluoromethoxy-benzoyl)-thiophen-2-ylcarbamoyl]-propylsulfanyl}-acetic acid]
> 7.00 | CCc1cc(C(=O)c2ccc(OC(F)(F)F)cc2)c(NC(=O)C(CC)SC(C)C(=O)O)s1 (centres unmarked) [Example 110, 2-{1-[5-Ethyl-3-(4-trifluoromethoxy-benzoyl)-thiophen-2-ylcarbamoyl]-propylsulfanyl}-propionic acid]
6.00 to 7.00 | CCc1cc(C(=O)c2ccc(OC)cc2)c(NC(=O)CSC(C)C(=O)O)s1 (centres unmarked) [Example 111, 2-{[5-Ethyl-3-(4-methoxy-benzoyl)-thiophen-2-ylcarbamoyl]-methylsulfanyl}-propionic acid]
> 7.00 | CCc1cc(C(=O)c2ccc(OC(F)(F)F)cc2)c(NC(=O)CSC(C)C(=O)O)s1 (centres unmarked) [Example 112, 2-{[5-Ethyl-3-(4-trifluoromethoxy-benzoyl)-thiophen-2-ylcarbamoyl]-methylsulfanyl}-propionic acid]
> 7.00 | CCc1cc(C(=O)c2ccc(OC(F)(F)F)cc2)c(NC(=O)C(SCC(=O)O)c2ccccc2)s1 (centres unmarked) [Example 113, {[5-Ethyl-3-(4-trifluoromethoxy-benzoyl)-thiophen-2-ylcarbamoyl]-phenyl-methylsulfanyl}-acetic acid]
6.00 to 7.00 | CCc1cc(C(=O)c2ccc(OC(F)(F)F)cc2)c(NC(=O)C(SCC(=O)O)C(C)C)s1 (centres unmarked) [Example 114, {1-[5-Ethyl-3-(4-trifluoromethoxy-benzoyl)-thiophen-2-ylcarbamoyl]-2-methyl-propylsulfanyl}-acetic acid]
